These results are taken from patent US20230001005A1, “TREATMENT OF CANCERS WITH ANTIBODY DRUG CONJUGATES (ADC) THAT BIND TO 191P4D12 PROTEINS” (AGENSYS, INC., priority 2019, published 2023).

Starred links: 1 amine or outer side, 2 acyl side, 3 side chain; linkers in the order of their positions; H or OH if unused. Non-standard residues stand in square brackets, D forms with d. Residues, ends and D or L forms follow the SMILES beside them. *: point of attachment. Dolaproine = CO[C@@H]([C@@H]1CCCN1)[C@@H](C)C(=O)O; Hexanoyl(6-maleimido) = O=C1C=CC(=O)N1CCCCCC(=O)*; Dil = CC[C@H](C)[C@H](NC)[C@@H](CC(=O)O)OC; PABC = O=C(OCc1ccc(N[*:1])cc1)[*:2]; X1 = C[C@@H](N*)[C@@H](O)c1ccccc1; Cit = NC(=O)NCCC[C@H](N)C(=O)O; NMeV = CN[C@H](C(=O)O)C(C)C Some results are limits rather than exact numbers.

Data set [1] has as its system human lung cancer xenograft AG-L4. Nature of the data set: Efficacy in subcutaneous established human lung cancer xenograft AG-L4 in SCID mice. The settings on record: 10 mg/kg every seven days for two doses, intravenous bolus; compared to control ADC. Type of data set: in vivo. As for the experimental part: In another experiment, patient-derived lung cancer xenograft AG-L4 was maintained by serial passages in SCID mice. Stock tumors were harvested sterilely and minced into 1 mm^3 pieces. Six (6) pieces were implanted into the flank of individual SCID mice. Tumors were allowed to grow untreated until they reached an approximate volume of 200 mm^3. The Ha22-2(2,4)6.1vcMMAE and the control ADC were dosed at 10 mg/kg every seven (7) days for two doses by intravenous bolus injection. The amount of ADC administered was based on the individual body weight of each animal obtained immediately prior to dosing. Tumor growth was monitored using caliper measurements every 3 to 4 days. Tumor volume was calculated as Width^2×Length/2, where width is the smallest dimension and length is the largest dimension.

Data set [2] concerns human breast cancer xenograft BT-483. Nature of the data set: Efficacy in subcutaneous established human breast cancer xenograft BT-483 in SCID mice. Type of data set: in vivo. To be noted: 5 mg/kg every four days for four doses, intravenous bolus; compared to control ADC. As for the experimental part: In this experiment, human breast cancer BT-483 cells were used to generate stock xenografts, which were maintained by serial passages in SCID mice. Stock tumors were harvested sterilely and minced into 1 mm^3 pieces. Six (6) pieces were implanted into the flank of individual SCID mice. Tumors were allowed to grow untreated until they reached an approximate volume of 100 mm^3. The Ha22-2(2,4)6.1vcMMAE and the control ADC were dosed at 5 mg/kg every four (4) days for four (4) doses by intravenous bolus injection. The amount of ADC administered was based on the individual body weight of each animal obtained immediately prior to dosing. Tumor growth was monitored using caliper measurements every 3 to 4 days. Tumor volume was calculated as Width^2×Length/2, where width is the smallest dimension and length is the largest dimension.
(In general: Xenograft models place foreign cells or tissue in a host animal.)

The subject of data set [3] is lung cancer xenografts. Nature of the data set: Formation of lung cancer xenografts (subcutaneous mouse xenograft model). On the set-up: species or system SCID mice. The settings on record: in vivo. How it is done: (§1) Subcutaneous (s.c.) tumors are generated by injection of 5×10^4- 10^6 cancer cells mixed at a 1:1 dilution with Matrigel (Collaborative Research) in the right flank of male SCID mice. To test ADC efficacy on tumor formation, ADC injections are started on the same day as tumor-cell injections. As a control, mice are injected with either purified human IgG or PBS; or a purified MAb that recognizes an irrelevant antigen not expressed in human cells. In preliminary studies, no difference is found between control IgG or PBS on tumor growth. Tumor sizes are determined by caliper measurements, and the tumor volume is calculated as width^2×Length/2, wherein width is the smallest dimension and length is the largest dimension. Mice with subcutaneous tumors greater than 1.5 cm in diameter are sacrificed.

Data set [4] has as its system breast cancer xenografts. As to the kind of experiment: Formation of breast cancer xenografts (subcutaneous mouse xenograft model). On the set-up: species or system SCID mice. The settings on record: in vivo. How it is done:
as §1

In data set [5] the test system is cell line engineered to express human 191P4D12. As to the kind of experiment: In vitro cell survival, engineered cell line. It is filed as cell-based.
For data set [6], the system named is xenograft of a patient-derived bladder cancer. As to the kind of experiment: Tumor xenograft model, patient-derived bladder cancer. It is filed as in vivo. To be noted: in a dose-dependent manner.
Data set [7] has as its system xenograft of human HR+breast cancer cell line. Nature of the data set: Tumor xenograft model, human HR+ breast cancer cell line. Type of data set: in vivo. The settings on record: 5 mg/kg every 4 days for 4 doses.
Data set [8] has as its system xenografts of human lung adenocarcinoma cell line. As to the kind of experiment: Tumor xenograft model, human lung adenocarcinoma cell line. Type of data set: in vivo.
Data set [9] concerns patient-derived lung adenocarcinoma. Nature of the data set: Tumor xenograft model, patient-derived lung adenocarcinoma. Type of data set: in vivo.
The subject of data set [10] is patient-derived TNBC cell xenograft. As to the kind of experiment: Patient-derived TNBC cell xenograft model. Type of data set: in vivo.
Data set [11] relates to male and female rats. Nature of the data set: Immunogenicity in rats. Type of data set: in vivo.
Data set [12] relates to cynomolgus monkeys. As to the kind of experiment: Immunogenicity in cynomolgus monkeys. It is filed as in vivo.
In data set [13] the test system is cynomolgus monkeys.
In data set [14] the test system is L5178Y TK+/−mouse lymphoma. Nature of the data set: L5178Y TK+/− mouse lymphoma mutation assay. Type of data set: cell-based.
Data set [15] concerns rats. As to the kind of experiment: Micronucleus test in rats. Type of data set: in vivo.
In data set [16] the test system is squamous NSCLC, Gastric (GEJ) cancer, HNSCC, NSCLC-adenocarcinoma, head & neck cancer-squamous, and breast cancer. To be noted: MMAE, Vinca, or both MMAE and Vinca; Vinca used if data for MMAE was not available; cited from earlier work.
The test system of data set [17] is bacteria. Nature of the data set: Reverse mutation test in bacteria (Ames test). In general terms: The Ames test uses bacterial strains that need an amino acid and regain growth without it when mutated back.
The nature of data set [18]: Absorbance / phototoxicity assessment (ICH S10).
The test system of data set [19] is acute myeloid leukemia (AML) at relapse. To be noted: administered alone; cited from earlier work.
The subject of data set [20] is rats. Nature of the data set: Toxicity studies in rats. Type of data set: in vivo.
Data set [21] has as its system metastatic urothelial cancer. As to the kind of experiment: EV-101 phase 1 dose escalation/expansion study. It is filed as in vivo, human. The source says:
EV-101 is a phase 1 dose escalation/expansion study that enrolled patients with 191P4D12-expressing solid tumors, (eg, metastatic urothelial cancer [UC]), who progressed on ≥1 prior chemotherapy regimen, including a cohort of patients with metastatic UC who received prior anti-PD-(L)1 therapy.
Enfortumab vedotin provided durable responses and meaningful survival results in patients after anti-PD-(L)-1 therapy in a population with a high unmet medical need. The confirmed ORR was 45% by a central review in patients who were treated with enfortumab vedotin 1.25 mg/kg. The median overall survival (OS) of 12.3 months is encouraging given the historical median OS is ≤10.3 months (Bellmunt J et al, N Eng J Med. 2017; 376(11):1015-1026).

For data set [22], the system named is patients who progressed after platinum chemotherapy and a PD-1/L1 inhibitor. Nature of the data set: EV-201 pivotal phase 2 study. It is filed as in vivo, human. How it is done: In a pivotal phase 2 study (EV-201), patients must have had prior treatment with platinum-containing chemotherapy or be platinum-naïve and ineligible for cisplatin treatment. […] The confirmed ORR was 44% in patients treated with enfortumab vedotin 1.25 mg/kg. The median OS was 11.7 months and the median duration of response was 7.6 months.

The target in data set [23] is T1, 191P4D12 (Homo sapiens, UniProt Q96NY8).
T1 sequence (Q96NY8 32-510): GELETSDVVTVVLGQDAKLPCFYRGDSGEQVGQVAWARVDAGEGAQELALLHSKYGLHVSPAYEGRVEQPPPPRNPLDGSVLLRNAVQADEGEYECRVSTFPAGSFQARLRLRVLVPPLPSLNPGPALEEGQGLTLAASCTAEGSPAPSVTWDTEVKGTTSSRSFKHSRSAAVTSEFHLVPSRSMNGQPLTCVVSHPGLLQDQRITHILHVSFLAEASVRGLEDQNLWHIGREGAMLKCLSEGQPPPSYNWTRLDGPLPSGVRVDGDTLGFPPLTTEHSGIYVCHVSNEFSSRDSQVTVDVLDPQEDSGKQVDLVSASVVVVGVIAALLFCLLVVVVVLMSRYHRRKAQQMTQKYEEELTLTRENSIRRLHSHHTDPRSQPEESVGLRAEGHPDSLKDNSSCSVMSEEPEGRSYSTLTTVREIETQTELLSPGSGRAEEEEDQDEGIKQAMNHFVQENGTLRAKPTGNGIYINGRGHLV
As to the kind of experiment: Comparability study: binding affinity to 191P4D12.

The nature of data set [24]: Comparability study: in vitro cytotoxicity. It is filed as cell-based.
The nature of data set [25]: Comparability study: in vivo antitumor activity.
Data set [26] concerns monkeys. As to the kind of experiment: Toxicity studies in monkeys. To be noted: sexually immature male monkeys, doses up to 6 mg/kg.

On to “AGS-22M6E: ADC derived from a murine hybridoma cell line; antibody Ha22-2(2,4)6.1 conjugated to MMAE via vc linker”, for which the “growth of AG-L4 lung cancer xenografts (tumor volume)” value in [1] was “significantly inhibited the growth”. Further, the “growth of BT-483 breast tumor xenografts (tumor volume)” value in [2] is listed as “significantly inhibited the growth”. Besides, the “formation of lung cancer xenografts” value in data set [3] is listed as “inhibits formation”. The “formation of breast cancer xenografts” value in data set [4] is given as “inhibits formation”. Besides, in data set [5], the “cell survival / cell growth” value is “inhibited cell survival”. The tumor growth result is recorded as “significantly inhibited the tumor growth” in data set [6], “significantly inhibited the tumor growth” in data set [7], “significantly inhibited tumor growth” in data set [8] and “significantly inhibited tumor growth” in data set [9]. Further, the “pharmacological antitumor activity, enfortumab vedotin versus AGS-22M6E” value in data set [10] is reported as “comparable”. The immunogenicity result in data set [11] and in data set [12] was “moderately immunogenic” each time. In addition, the “immunogenicity, AGS-22M6E versus enfortumab vedotin” value in [12] is “comparable”. The “pharmacokinetics, AGS-22M6E versus enfortumab vedotin” value in [13] is recorded as “comparable”. Besides, in data set [13], the “safety profile, AGS-22M6E versus enfortumab vedotin” value was “comparable”.
For `CC[C@H](C)[C@@H]([C@@H](CC(=O)N1CCC[C@H]1[C@H](OC)[C@@H](C)C(=O)N[C@H](C)[C@@H](O)c1ccccc1)OC)N(C)C(=O)[C@@H](NC(=O)[C@@H](NC)C(C)C)C(C)C` [MMAE, monomethyl auristatin E] (H-[NMeV]V[Dil][Dolaproine]-X1), the genotoxic potential result in [14] and in data set [17] was “no discernible genotoxic potential” throughout. In addition, the chromosomal aberrations result in data set [15] is listed as “induce chromosomal aberrations”. The “sensitivity of the cancers to cytotoxicity” value in data set [16] was “sensitive to cytotoxicity”. In [18], the “absorbance in the range of 290 nm to 700 nm” value is “no absorbance”.
In the case of “CT-011: anti-PD-1 antibody, a humanized antibody”, the response entry in data set [19] is “failed to show response”.
With enfortumab vedotin, the “pharmacological antitumor activity, enfortumab vedotin versus AGS-22M6E” value in data set [10] is given as “comparable”. The “dose at which testicular toxicity (seminiferous tubule degeneration and hypospermia in the epididymis) was noted” value in data set [20] was at least 2.0 mg/kg. The “reversibility of testicular findings” value in data set [20] (end of a 24-week recovery period) is listed as “partially reversed”. In addition, the “immunogenicity, AGS-22M6E versus enfortumab vedotin” value in data set [12] is reported as “comparable”. For the same compound, the “median overall survival (OS)” value in data set [21] is reported as 12.3 months. The “confirmed ORR” value in data set [21] (by a central review, 1.25 mg/kg, metastatic urothelial cancer after anti-PD-(L)-1 therapy) is on record as 45%. For the same compound, in [22], the “median OS” value is 11.7 months and the “median duration of response” value is 7.6 months. Moreover, the “confirmed ORR” value in data set [22] (1.25 mg/kg) was 44%. Further, the “comparability of binding affinity to 191P4D12, enfortumab vedotin versus AGS-22M6E” value in [23] is reported as “confirmed”. Moreover, the “comparability of in vitro cytotoxicity, enfortumab vedotin versus AGS-22M6E” value in [24] was “confirmed”. Besides, the “comparability of in vivo antitumor activity, enfortumab vedotin versus AGS-22M6E” value in data set [25] is listed as “confirmed”. Further, the “safety profile, AGS-22M6E versus enfortumab vedotin” value in data set [13] is given as “comparable”. The testicular toxicity result in data set [26] is given as “not observed”. Further, in data set [18] (concluded from absorbance of MMAE and vc-MMAE), the “photoreactivity / direct phototoxicity” value is “not considered to be sufficiently photoreactive”.
For `CC[C@H](C)[C@@H]([C@@H](CC(=O)N1CCC[C@H]1[C@H](OC)[C@@H](C)C(=O)N[C@H](C)[C@@H](O)c1ccccc1)OC)N(C)C(=O)[C@@H](NC(=O)[C@H](C(C)C)N(C)C(=O)OCc1ccc(NC(=O)[C@H](CCCNC(N)=O)NC(=O)[C@@H](NC(=O)CCCCCN2C(=O)C=CC2=O)C(C)C)cc1)C(C)C` [vc-MMAE, valine-citrulline linker-MMAE] ({Hexanoyl(6-maleimido)}-V[Cit][PABC][NMeV]V[Dil][Dolaproine]-X1), in data set [18], the “absorbance against the criteria for phototoxicity testing as defined in the ICH S10 guidance” value was “did not meet the criteria for phototoxicity testing”.
For the compound AGS-22M6, the “cell survival / cell growth” value in data set [5] is “did not affect cell growth”.
